Read-outs that look alike come from different tables or passages of the source.
Experiments:
MOA = details: in vivo in rats, tryptamine potentiation test; Kaiser / Zirkel 1962; cited from earlier work
human 5-HT2A receptor = target: T1, human 5-HT2A receptor (Homo sapiens, UniProt P28223); assay: Functional activity by Ca++-flux (intracellular calcium mobilization), 5-HT2A; type: cell-based; details: Ca++-flux, HEK-293 cells, NA = not active
T1 construct: expressed in transfected cells; host or cells: HEK-293
Experimental: The functional activity of the compounds for the human 5-HT2A, human 5-HT2B, and human 5-HT2C receptors is determined by measurement of Ca++-flux as detailed in the Examples, in transiently transfected HEK-293 cells and the results are summarized in Table I. Structures of compounds listed in Table I are given in Scheme 15.
(§1) The functional activity of compounds for the human 5-HT2A, human 5-HT2B, and human 5-HT2C receptors as agonists, partial agonists and antagonists is determined by measurement of Ca++-flux. The results are summarized in Table 1 where EC50 for different receptors are given (nM) and the ratio of activities 2A/2C and 2B/2C are also given. As noted above, other methods for assessing agonist/antagonist function of compounds for 5-HT2 family receptors are known in the art.
(§2) For these studies stably expressing lines of h5-HT2A, h5-HT2B, and h5-HT2C receptors are prepared in HEK-293 cells. For the h5-HT2A and h5-HT2C-INI receptors, stably expressing HEK-293 cell lines were constructed as previously described using a pIRES-NEO vector system (See: Rauser et al, J Pharmacol Exp Ther 299: 83-89, 2001).
(§3) Stable cell lines were plated with ˜40,000 cells/well into uncoated (3T3 cells) or poly-L-lysine coated (HEK293 cells) 96-well plates in DMEM supplemented with 5% dialyzed FBS. 16-24 hrs post-plating, the medium was aspirated and replaced with 30 μl/well of Calcium Assay Kit Component A Dye (Molecular Devices; Sunnyvale, Calif.) dissolved in 30 ml/bottle of assay buffer (2.5 mM probenecid, 20 mM Hepes, and 1× Hanks' Balanced Salt Solution (Invitrogen; Carlsbad, Calif.) (138 mM NaCl, 5.3 mM KCl, 1.3 mM CaCl2, 0.49 mM MgCl2, 0.41 mM MgSO4, 0.44 mM KH2PO4, 0.34 mM Na2HPO4) pH 7.4. Plates were incubated in the dye for 1 hr at 37° C. Dilutions were made in assay buffer as 2× stocks and added to 96-well drug plates. Fluorometric imaging was performed using a FlexStation II plate reader (Molecular Devices) reading the plate at 1.5 second intervals for 1 min. After establishing a fluorescent baseline (excitation at 485 nm and emission at 525 nm, using a […] cutoff), the FlexStation II automatically transferred 30 μl of 2× drug stocks from the drug plate to the cell plate at the 20 second time point with reading for another 40 seconds. Peak relative fluorescence units (RFU) were subtracted from baseline RFUs using SoftMax Pro (Molecular Devices) and values were imported into GraphPad Prism version 4.03 (GraphPad Software; San Diego, Calif.) for analysis. Ca++-flux studies are very convenient for initial screening of large numbers of compounds for agonist activity.
Compounds are resuspended in DMSO at a stock concentration of 2-15 mM and, for a typical agonist screen, are diluted in assay buffer to a final 2× concentration of 20 μM into drugs plates. Compounds are added in duplicate to cell plates using the FlexStation II as described to identify agonists, defined as having >10% of maximal 5-HT response. […] Generally, screens are performed twice with each determination being made in duplicate. Typical Z′-factor (Zhang et al., 1999) values for agonist screens ranged from 0.61-0.79 (5-HT2AR), 0.42-0.81 (5-HT2BR) and 0.38-0.72 (5-HT2CR); these Z′-factor values are adequate for screening studies in which N=2 determinations are made and the screens replicated for a total of N=4 determinations.
(§4) Compounds identified by primary screens to be agonists are subsequently used in concentration-response experiments to verify the initial observations and obtain agonist potencies. Concentration-response studies are performed in triplicate or quadruplicate at each concentration and repeated three times. Baseline-subtracted RFU values imported into GraphPad Prism are analyzed by non-linear regression to obtain pEC50 values, and normalized to maximal 5-HT response to obtain relative efficacies.

human 5-HT2B receptor = target: T2, human 5-HT2B receptor (Homo sapiens, UniProt P41595); assay: Functional activity by Ca++-flux (intracellular calcium mobilization), 5-HT2B; type: cell-based; details: for EC50: read-out: 5-HT2B human EC50
T2 construct: expressed in transfected cells; host or cells: HEK293 (ATCC CRL-1573), retroviral infection with pBabepuro-FLAG-h5-HT2BR, polyclonal line

human 5-HT2C receptor = target: T3, human 5-HT2C receptor (Homo sapiens, UniProt P28335); assay: Functional activity by Ca++-flux (intracellular calcium mobilization), 5-HT2C; type: cell-based; details: for EC50: Ca++-flux, HEK-293 cells, NA = not active, read-out: 5-HT2C human EC50; for 2A/2C ratio: ratio of EC50 5-HT2A / 5-HT2C; for 2B/2C ratio: ratio of EC50 5-HT2B / 5-HT2C
T3 construct: expressed in transfected cells; host or cells: HEK-293
T3 sequence (P28335 33-458): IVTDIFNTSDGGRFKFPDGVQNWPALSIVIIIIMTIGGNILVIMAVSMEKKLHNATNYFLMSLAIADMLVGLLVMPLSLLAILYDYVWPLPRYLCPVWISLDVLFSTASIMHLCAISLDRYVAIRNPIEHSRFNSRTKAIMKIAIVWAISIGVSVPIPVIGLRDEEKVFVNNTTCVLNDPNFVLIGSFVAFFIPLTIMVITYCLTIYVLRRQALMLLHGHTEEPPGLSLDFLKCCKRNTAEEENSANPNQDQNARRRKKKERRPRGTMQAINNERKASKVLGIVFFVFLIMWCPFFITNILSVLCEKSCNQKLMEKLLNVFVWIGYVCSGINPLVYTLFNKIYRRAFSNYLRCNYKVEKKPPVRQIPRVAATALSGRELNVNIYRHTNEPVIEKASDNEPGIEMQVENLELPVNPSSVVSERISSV
Experimental: as §1, with “The results are summarized in Table 1 where EC50 for different receptors are given (nM) and the ratio of activities 2A/2C and 2B/2C are also given.” left out
as §2, §3
Compounds are resuspended in DMSO at a stock concentration of 2-15 mM and, for a typical agonist screen, are diluted in assay buffer to a final 2× concentration of 20 μM into drugs plates. Compounds are added in duplicate to cell plates using the FlexStation II as described to identify agonists, defined as having >10% of maximal 5-HT response. […] Generally, screens are performed twice with each determination being made in duplicate.
as §4

6 Hz seizure model = 6 Hz seizure model in mice; type: in vivo; details: 100 mg/kg i.p.
[1] = Ca++-flux, HEK-293 cells, NA = not active

T2 sequence (P41595 whole entry): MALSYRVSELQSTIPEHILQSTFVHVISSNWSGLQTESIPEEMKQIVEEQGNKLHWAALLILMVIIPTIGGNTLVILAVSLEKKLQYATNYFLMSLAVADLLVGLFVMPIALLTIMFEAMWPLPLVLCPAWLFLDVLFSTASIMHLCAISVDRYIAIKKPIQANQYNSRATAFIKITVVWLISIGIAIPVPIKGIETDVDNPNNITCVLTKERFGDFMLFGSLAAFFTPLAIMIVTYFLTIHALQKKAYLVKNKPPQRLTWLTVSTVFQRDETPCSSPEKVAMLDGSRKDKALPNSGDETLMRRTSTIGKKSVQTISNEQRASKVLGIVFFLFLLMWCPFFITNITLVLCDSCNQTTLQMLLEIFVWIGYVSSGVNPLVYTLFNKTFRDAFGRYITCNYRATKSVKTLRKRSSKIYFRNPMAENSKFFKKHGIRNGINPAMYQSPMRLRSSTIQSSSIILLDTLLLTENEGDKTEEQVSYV
T1 sequence (P28223 whole entry): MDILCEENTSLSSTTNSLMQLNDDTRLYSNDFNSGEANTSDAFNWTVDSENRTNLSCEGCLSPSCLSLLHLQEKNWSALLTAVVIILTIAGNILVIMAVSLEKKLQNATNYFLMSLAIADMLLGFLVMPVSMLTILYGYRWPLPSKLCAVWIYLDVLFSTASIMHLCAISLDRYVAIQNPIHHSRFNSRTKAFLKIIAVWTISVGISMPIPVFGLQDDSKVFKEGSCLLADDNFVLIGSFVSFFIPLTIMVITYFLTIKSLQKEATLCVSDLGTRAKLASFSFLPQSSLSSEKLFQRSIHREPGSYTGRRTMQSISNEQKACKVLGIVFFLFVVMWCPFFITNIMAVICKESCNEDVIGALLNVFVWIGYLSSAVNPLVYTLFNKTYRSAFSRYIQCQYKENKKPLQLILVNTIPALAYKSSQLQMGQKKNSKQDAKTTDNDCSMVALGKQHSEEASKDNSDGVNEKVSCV

Row | Substance | EC50 (human 5-HT2A receptor) | EC50 (human 5-HT2B receptor; [1]) | EC50 (human 5-HT2C receptor) | 2A/2C ratio (human 5-HT2C receptor) | 2B/2C ratio (human 5-HT2C receptor) | also measured
1 | trans-aminomethyl-2-phenylcyclopropylamine | – | – | – | – | – | inhibition of MOA (MOA): not to inhibit MOA
2 | trans-(±)-(2-Phenyl-cyclopropyl)-methylamine Hydrochloride [TKU-II-17] | – | – | – | – | – | EC50 (human 5-HT2A receptor; Hydrochloride): 49.7 nM; EC50 (human 5-HT2B receptor; Ca++-flux, HEK-293 cells, NA = not active, Hydrochloride): 18.6 nM; EC50 (human 5-HT2C receptor; Hydrochloride): 9.6 nM; 2A/2C ratio (human 5-HT2C receptor; Hydrochloride): 5.18; 2B/2C ratio (human 5-HT2C receptor; Hydrochloride): 1.94; motor impairment (6 Hz seizure model; 15-60 minutes after dosing): minimal motor impairment; animals protected from seizure (6 Hz seizure model; after four hours): three of the four
3 | trans-(±)-[2-(4′-Chloro-biphenyl-2-yl)-cyclopropyl]-methylamine Hydrochloride [TKU-II-119] | 215 nM | 63.7 nM | 2.54 nM | 85 | 25 | –
4 | trans-(+)-[2-(3-Bromo-phenyl)-cyclopropyl]-methylamine Hydrochloride [TKU-II-153-1] | 48.7 nM | 21.3 nM | 11.4 nM | 4.3 | 1.8 | –
5 | trans-(±)-[2-(4-Furan-2-yl-phenyl)-cyclopropyl]-methylamine Hydrochloride [TKU-II-81] | 281000 nM | – | 82 nM | 3431 | – | activity at 5-HT2B receptor (human 5-HT2B receptor): no activity; selectivity over the 5-HT2A receptor (human 5-HT2C receptor; 5-HT2C versus 5-HT2A): good selectivity
6 | trans-(±)-[2-(4′-Trifluoromethyl-biphenyl-2-yl)-cyclopropyl]-methylamine Hydrochloride [TKU-II-120] | – | – | 10.1 nM | – | – | 5-HT2A human EC50 (human 5-HT2A receptor): Not; 5-HT2B human EC50 (human 5-HT2B receptor; [1]): Not
7 | trans-(±)-[2-(4′-Trifluoromethyl-biphenyl-4-yl)-cyclopropyl]-methylamine Hydrochloride [TKU-II-58] | 3410 nM | 1270 nM | 226 nM | 15.1 | 5.62 | –

From patent US20090203750A1, “5-HT2C Receptor Agonists as Anorectic Agents” (priority 2005, published 2009)
